Key:
Mcl-1 = Mcl-1 (Homo sapiens (Human), UniProt Q07820); experiment: TR-FRET binding assay, FITC-Bak peptide and MBP-tagged Mcl-1; settings: read-out: Ki for Inhibition of Mcl-1 by TR-FRET assay
Description: Compounds are diluted in DMSO in a 16-point, semilog serial dilution scheme. […] The plate was mixed and incubated for 3 hours at room temperature. […] TR-FRET signal is plotted and IC50 and Ki values are calculated in the same manner as the fluorescence polarization anisotropy based competition assays.

[1] = system: H929 human cancer cell lines; experiment: Cellular viability / proliferation (Cell TiterGlo, 72 h); assay type: cell-based; settings: Homo sapiens, NCI-H929, 72 h, read-out: GI50 on cellular proliferation of H929 human cancer cell lines, H929 cells, 72 h, Cell TiterGlo, 10% FBS
Outline: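 Cells were seeded at 1,000 cells/well in medium with 10% FBS and dosed 24 h later with a 2-fold serial dilution of compound (top concentration 50 μM, final DMSO <1%).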

Mcl-1, sequence (Q07820 172-327): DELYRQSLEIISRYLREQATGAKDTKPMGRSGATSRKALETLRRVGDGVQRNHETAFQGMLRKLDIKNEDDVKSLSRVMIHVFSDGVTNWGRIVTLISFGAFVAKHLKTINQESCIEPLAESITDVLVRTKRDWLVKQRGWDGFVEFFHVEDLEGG

Compound | Ki (Mcl-1) [nM] | GI50 [1] [nM]
Cc1cc(OCCCc2c3n(c4c(-c5c(C)nn(C)c5C)c(Cl)ccc24)[C@H](C)CN(c2cc(C(=O)N4CCN(C)C(=O)C4)cc4cc(C(=O)O)n(C)c24)C3=O)cc(C)c1Cl [Example 630, (R)-7-(7-chloro-10-(3-(4-chloro-3,5-dimethylphenoxy)propyl)-4-methyl-1-oxo-6-(1,3,5-trimethyl-1H-pyrazol-4-yl)-3,4-dihydropyrazino[1,2-a]indol-2(1H)-yl)-1-methyl-5-(4-methyl-3-oxopiperazine-1-carbonyl)-1H-indole-2-carboxylic acid] | < 0.2 | 9000
Cc1cc(N2C[C@@H](C)n3c(c(CCCOc4cc(C)c(Cl)c(C)c4)c4ccc(Cl)c(-c5c(C)nn(C)c5C)c43)C2=O)c2c(c1)cc(C(=O)O)n2CC(=O)N(C)C [Example 596, (R)-7-(7-chloro-10-(3-(4-chloro-3,5-dimethylphenoxy)propyl)-4-methyl-1-oxo-6-(1,3,5-trimethyl-1H-pyrazol-4-yl)-3,4-dihydropyrazino[1,2-a]indol-2(1H)-yl)-1-(2-(dimethylamino)-2-oxoethyl)-5-methyl-1H-indole-2-carboxylic acid] | < 0.2 | 1300
COCCn1cc(N2C[C@@H](C)n3c(c(CCCOc4cc(C)c(Cl)c(C)c4)c4ccc(Cl)c(-c5c(C)nn(C)c5C)c43)C2=O)c2cc(-c3ncccn3)ccc21 [Example 548, (R)-7-Chloro-10-(3-(4-chloro-3,5-dimethylphenoxy)propyl)-2-(1-(2-methoxyethyl)-5-(pyrimidin-2-yl)-1H-indol-3-yl)-4-methyl-6-(1,3,5-trimethyl-1H-pyrazol-4-yl)-3,4-dihydropyrazino[1,2-a]indol-1(2H)-one] | 0.94 | 610
COCc1cc(N2C[C@@H](C)n3c(c(CCCOc4cc(C)c(Cl)c(C)c4)c4ccc(Cl)c(-c5c(C)nn(C)c5C)c43)C2=O)c2c(c1)cc(C(=O)O)n2Cc1ccccn1 [Example 691, (R)-7-(7-chloro-10-(3-(4-chloro-3,5-dimethylphenoxy)propyl)-4-methyl-1-oxo-6-(1,3,5-trimethyl-1H-pyrazol-4-yl)-3,4-dihydropyrazino[1,2-a]indol-2(1H)-yl)-5-(methoxymethyl)-1-(pyridin-2-ylmethyl)-1H-indole-2-carboxylic acid] | < 0.2 | < 200
Cc1ccc(Cn2cc(C(=O)O)c3cccc(N4C[C@@H](C)n5c(c(CCCOc6cc(C)c(Cl)c(C)c6)c6ccc(Cl)c(-c7c(C)nn(C)c7C)c65)C4=O)c32)nc1 (single isomer, unassigned) [Example 501] | 0.68 | 1200
Cc1cc(OCCCc2c3n(c4c(-c5c(C)nn(C)c5C)c(Cl)ccc24)[C@H](C)CN(c2cn(C)c4ccc(-c5nnc6ccccn56)cc24)C3=O)cc(C)c1Cl [Example 675, (R)-2-(5-([1,2,4]Triazolo[4,3-a]pyridin-3-yl)-1-methyl-1H-indol-3-yl)-7-chloro-10-(3-(4-chloro-3,5-dimethylphenoxy)propyl)-4-methyl-6-(1,3,5-trimethyl-1H-pyrazol-4-yl)-3,4-dihydropyrazino[1,2-a]indol-1(2H)-one] | 28 | 4800
Cc1cc(OCCCc2c3n(c4c(-c5c(C)nn(C)c5C)c(Cl)ccc24)[C@H](C)CN(c2cn(CCN4CCCC4)c4ccc(-c5ncn(C)n5)cc24)C3=O)cc(C)c1Cl [Example 586, (R)-7-Chloro-10-(3-(4-chloro-3,5-dimethylphenoxy)propyl)-4-methyl-2-(5-(1-methyl-1H-1,2,4-triazol-3-yl)-1-(2-(pyrrolidin-1-yl)ethyl)-1H-indol-3-yl)-6-(1,3,5-trimethyl-1H-pyrazol-4-yl)-3,4-dihydropyrazino[1,2-a]indol-1(2H)-one] | 2.6 | 400
COc1cc(N2C[C@@H](C)n3c(c(CCCOc4cc(C)c(Cl)c(C)c4)c4ccc(Cl)c(-c5c(C)nn(C)c5C)c43)C2=O)c2c(c1)cc(C(=O)O)n2Cc1ccccn1 [Example 538, (R)-7-(7-Chloro-10-(3-(4-chloro-3,5-dimethylphenoxy)propyl)-4-methyl-1-oxo-6-(1,3,5-trimethyl-1H-pyrazol-4-yl)-3,4-dihydropyrazino[1,2-a]indol-2(1H)-yl)-5-methoxy-1-(pyridin-2-ylmethyl)-1H-indole-2-carboxylic acid] | < 0.2 | < 200
Cc1cc(N2C[C@@H](C)n3c(c(CCCOc4cc(C)c(Cl)c(C)c4)c4ccc(Cl)c(-c5c(C)nn(C)c5C)c43)C2=O)c2c(c1)cc(C(=O)O)n2Cc1cccc(N2CCCCC2)n1 [Example 505, (R)-7-(7-Chloro-10-(3-(4-chloro-3,5-dimethylphenoxy)propyl)-4-methyl-1-oxo-6-(1,3,5-trimethyl-1H-pyrazol-4-yl)-3,4-dihydropyrazino[1,2-a]indol-2(1H)-yl)-5-methyl-1-((6-(piperidin-1-yl)pyridin-2-yl)methyl)-1H-indole-2-carboxylic acid] | 1.3 | 3200
COCCOc1cc(N2C[C@@H](C)n3c(c(CCCOc4cc(C)c(Cl)c(C)c4)c4ccc(Cl)c(-c5c(C)nn(C)c5C)c43)C2=O)c2c(c1)c(C(=O)O)cn2Cc1ccccn1 [Example 609, (R)-7-(7-chloro-10-(3-(4-chloro-3,5-dimethylphenoxy)propyl)-4-methyl-1-oxo-6-(1,3,5-trimethyl-1H-pyrazol-4-yl)-3,4-dihydropyrazino[1,2-a]indol-2(1H)-yl)-5-(2-methoxyethoxy)-1-(pyridin-2-ylmethyl)-1H-indole-3-carboxylic acid] | 0.26 | 340
Cc1cc(OCCCc2c3n(c4c(-c5c(C)nn(C)c5C)c(Cl)ccc24)[C@H](C)CN(c2cc(N(C)C(=O)CN(C)C)cc4c(C(=O)O)cn(C)c24)C3=O)cc(C)c1Cl [Example 611, (R)-7-(7-chloro-10-(3-(4-chloro-3,5-dimethylphenoxy)propyl)-4-methyl-1-oxo-6-(1,3,5-trimethyl-1H-pyrazol-4-yl)-3,4-dihydropyrazino[1,2-a]indol-2(1H)-yl)-5-(2-(dimethylamino)-N-methylacetamido)-1-methyl-1H-indole-3-carboxylic acid] | 1.1 | –
COCCn1c(C(=O)O)cc2cc(C)cc(N3C[C@@H](C)n4c(c(CCCOc5cc(C)c(Cl)c(C)c5)c5ccc(Cl)c(-c6c(C)nn(C)c6C)c54)C3=O)c21 [Example 709, (M, R)-7-(7-chloro-10-(3-(4-chloro-3,5-dimethylphenoxy)propyl)-4-methyl-1-oxo-6-(1,3,5-trimethyl-1H-pyrazol-4-yl)-3,4-dihydropyrazino[1,2-a]indol-2(1H)-yl)-1-(2-methoxyethyl)-5-methyl-1H-indole-2-carboxylic acid] | < 0.2 | –
Cc1cc(N2C[C@@H](C)n3c(c(CCCOc4cc(C)c(Cl)c(C)c4)c4ccc(Cl)c(-c5c(C)nn(C)c5C)c43)C2=O)c2c(c1)cc(C(=O)O)n2Cc1ccccn1 [Example 713, (M, R)-7-(7-chloro-10-(3-(4-chloro-3,5-dimethylphenoxy)propyl)-4-methyl-1-oxo-6-(1,3,5-trimethyl-1H-pyrazol-4-yl)-3,4-dihydropyrazino[1,2-a]indol-2(1H)-yl)-5-methyl-1-(pyridin-2-ylmethyl)-1H-indole-2-carboxylic acid] | < 0.2 | –
Cc1cc(N2C[C@@H](C)n3c(c(CCCOc4cc(C)c(Cl)c(C)c4)c4ccc(Cl)c(-c5c(C)nn(C)c5C)c43)C2=O)c2c(c1)cc(C(=O)O)n2Cc1ccccn1 [Example 714, (P, R)-7-(7-chloro-10-(3-(4-chloro-3,5-dimethylphenoxy)propyl)-4-methyl-1-oxo-6-(1,3,5-trimethyl-1H-pyrazol-4-yl)-3,4-dihydropyrazino[1,2-a]indol-2(1H)-yl)-5-methyl-1-(pyridin-2-ylmethyl)-1H-indole-2-carboxylic acid] | < 0.2 | –
COCCn1c(C(=O)O)cc2cc(C)cc(N3C[C@@H](C)n4c(c(CCCOc5cc(C)c(Cl)c(C)c5)c5ccc(Cl)c(-c6c(C)nn(C)c6C)c54)C3=O)c21 [Example 710, (P, R)-7-(7-chloro-10-(3-(4-chloro-3,5-dimethylphenoxy)propyl)-4-methyl-1-oxo-6-(1,3,5-trimethyl-1H-pyrazol-4-yl)-3,4-dihydropyrazino[1,2-a]indol-2(1H)-yl)-1-(2-methoxyethyl)-5-methyl-1H-indole-2-carboxylic acid] | < 0.2 | –
Cc1cc(OCCCc2c3n(c4c(-c5c(C)nn(C)c5C)c(Cl)ccc24)[C@H](C)CN(c2ccc4ccc(C(=O)O)nc4c2)C3=O)cc(C)c1Cl [Example 666, (R)-7-(7-chloro-10-(3-(4-chloro-3,5-dimethylphenoxy)propyl)-4-methyl-1-oxo-6-(1,3,5-trimethyl-1H-pyrazol-4-yl)-3,4-dihydropyrazino[1,2-a]indol-2(1H)-yl)quinoline-2-carboxylic acid] | 7.2 | –
Cc1cc(OCCCc2c3n(c4c(-c5c(C)nn(C)c5C)c(Cl)ccc24)[C@H](C)CN(c2cc(CN4CCC(Oc5ccc(Cl)cc5)CC4)cc4c(C(=O)O)cn(C)c24)C3=O)cc(C)c1Cl [Example 547, (R)-7-(7-chloro-10-(3-(4-chloro-3,5-dimethylphenoxy)propyl)-4-methyl-t-oxo-6-(1,3,5-trimethyl-1H-pyrazol-4-yl)-3,4-dihydropyrazino[1,2-a]indol-2(1H)-yl)-5-((4-(4-chlorophenoxy)piperidin-1-yl)methyl)-1-methyl-1H-indole-3-carboxylic acid] | 10 | –
COCCOc1cc(N2C[C@@H](C)n3c(c(CCCOc4cc(C)c(Cl)c(C)c4)c4ccc(Cl)c(-c5c(C)nn(C)c5C)c43)C2=O)c2c(c1)cc(C(=O)O)n2C [Example 712, (P, R)-7-(7-chloro-10-(3-(4-chloro-3,5-dimethylphenoxy)propyl)-4-methyl-1-oxo-6-(1,3,5-trimethyl-1H-pyrazol-4-yl)-3,4-dihydropyrazino[1,2-a]indol-2(1H)-yl)-5-(2-methoxyethoxy)-1-methyl-1H-indole-2-carboxylic acid] | < 0.2 | –
